Experimental data as given in patent US12497406B2, “Microbiocidal derivatives” (SYNGENTA CROP PROTECTION AG, priority 2019, dated 2025).

Columns and labels:
[1] = system: Alternaria solani; assay: Alternaria solani / tomato / leaf disc (early blight); assay type: in vivo; conditions: foliar, tomato leaf disks cv. Baby, inoculated 2 days after application, compared to untreated control
Method: Example B1. Alternaria solani/Tomato/Leaf Disc (Early Blight) Tomato leaf disks cv. Baby are placed on agar in multiwell plates (24-well format) and sprayed with the formulated test compound diluted in water. The leaf disks are inoculated with a spore suspension of the fungus 2 days after application. The inoculated leaf disks are incubated at 23° C./21° C. […] […]-24, and P-25.

[2] = system: Glomerella lagenarium (Colletotrichum lagenarium); assay: Glomerella lagenarium (Colletotrichum lagenarium) / liquid culture (anthracnose); assay type: cell-based; conditions: Colletotrichum orbiculare, liquid culture (PDB), growth inhibition photometrically 3-4 days after application, compared to untreated control
Method: (§1) Example B3. Glomerella lagenarium (Colletotrichum lagenarium)/Liquid Culture (Anthracnose) Conidia of the fungus from cryogenic storage are directly mixed into nutrient broth (PDB potato dextrose broth). After placing a (DMSO) solution of test compound into a microtiter plate (96-well format), the nutrient broth containing the fungal spores is added. The test plates are incubated at 24° C. and the inhibition of growth is measured photometrically 3-4 days after application. […] […]-25, and P-26.

[3] = system: Monographella nivalis (Microdochium nivale); assay: Monographella nivalis (Microdochium nivale) / liquid culture (foot rot cereals); assay type: cell-based; conditions: liquid culture (PDB), growth inhibition photometrically 4-5 days after application, compared to untreated control
Method: as §1, with “B6. Monographella nivalis (Microdochium nivale)/Liquid” for “B3. Glomerella lagenarium (Colletotrichum lagenarium)/Liquid”, “(Foot Rot Cereals)” for “(Anthracnose)”, “determined” for “measured”, “4-5” for “3-4”

[4] = system: Magnaporthe grisea (Pyricularia oryzae); assay: whole plant or invertebrate; assay type: in vivo; conditions: foliar, read-out: control of Magnaporthe grisea
[5] = system: Mycosphaerella graminicola (Septoria tritici); assay: Mycosphaerella graminicola (Septoria tritici) / liquid culture (Septoria blotch); assay type: cell-based; conditions: Zymoseptoria tritici, liquid culture (PDB), growth inhibition photometrically 4-5 days after application, compared to untreated control
Method: (§2) Example B11. Mycosphaerella graminicola (Septoria tritici)/Liquid Culture (Septoria Blotch) Conidia of the fungus from cryogenic storage are directly mixed into nutrient broth (PDB potato dextrose broth). After placing a (DMSO) solution of test compound into a microtiter plate (96-well format), the nutrient broth containing the fungal spores is added. The test plates are incubated at 24° C. and the inhibition of growth is determined photometrically 4-5 days after application.

[6] = system: Mycosphaerella arachidis (Cercospora arachidicola); assay: Mycosphaerella arachidis (Cercospora arachidicola) / liquid culture (early leaf spot); assay type: cell-based; conditions: liquid culture (PDB), growth inhibition photometrically 4-5 days after application, compared to untreated control
Method: as §2, with “B7.” for “B11.”, “arachidis (Cercospora arachidicola)/Liquid” for “graminicola (Septoria tritici)/Liquid”, “(Early Leaf Spot)” for “(Septoria Blotch)”, “application. […] […]-22, and P-25.” for “application.”

[7] = system: Pyrenophora teres; assay: Pyrenophora teres / barley / leaf disc preventative (net blotch); assay type: in vivo; conditions: foliar, barley leaf segments cv. Hasso, inoculated 2 days after application, compared to untreated control
Method: Example B10. Pyrenophora teres/Barley/Leaf Disc Preventative (Net Blotch) Barley leaf segments cv. Hasso are placed on agar in a multiwell plate (24-well format) and sprayed with the formulated test compound diluted in water. The leaf segments are inoculated with a spore suspension of the fungus 2 days after application. The inoculated leaf segments are incubated at 20° C. and 65% rh under a light regime of 12 h light/12 h darkness in a climate cabinet and the activity of a compound is assessed as disease control compared to untreated when an appropriate level of disease damage appears in untreated check leaf segments (5-7 days after application). […] […]-25, and P-26.

[8] = system: Puccinia recondita f. sp. tritici; assay: Puccinia recondita f. sp. tritici / wheat / leaf disc preventative (brown rust); assay type: in vivo; conditions: foliar, wheat leaf segments cv. Kanzler, inoculated 1 day after application, compared to untreated control
Method: Example B8. Puccinia recondita f. Sp. tritici/Wheat/Leaf Disc Preventative (Brown Rust) Wheat leaf segments cv. Kanzler are placed on agar in multiwell plates (24-well format) and sprayed with the formulated test compound diluted in water. The leaf disks are inoculated with a spore suspension of the fungus 1 day after application. The inoculated leaf segments are incubated at 19° C. and 75% rh under a light regime of 12 h light/12 h darkness in a climate cabinet and the activity of a compound is assessed as percent disease control compared to untreated when an appropriate level of disease damage appears in untreated check leaf segments (7-9 days after application). […] […]-25, and P-26.

CC1(NC(=O)c2nc(Nc3cc(F)cc(F)c3)cc3c2OCO3)COC1 [Compound P-24, 6-(3,5-difluoroanilino)-N-(3-methyloxetan-3-yl)-[1,3]dioxolo[4,5-c]pyridine-4-carboxamide]
≥ 80%: pest or weed control at 200 ppm [1] | inhibition of growth at 20 ppm [2] | inhibition of growth at 20 ppm [3] | pest or weed control at 200 ppm [4] | inhibition of growth at 20 ppm [5]

CC(C)(C)CNC(=O)c1nc(Nc2cccc(F)c2)cc2c1OCO2 [Compound P-15, N-(2,2-dimethylpropyl)-6-(3-fluoroanilino)-[1,3]dioxolo[4,5-c]pyridine-4-carboxamide]
≥ 80%: inhibition of growth at 20 ppm [2] | inhibition of growth at 20 ppm [3] | inhibition of growth at 20 ppm [6] | pest or weed control at 200 ppm [4] | pest or weed control at 200 ppm [7] | inhibition of growth at 20 ppm [5]

CC1Oc2cc(Nc3ccccc3)nc(C(=O)NCC(C)(C)C)c2O1 (centres unmarked) [Compound P-1, 6-anilino-N-(2,2-dimethylpropyl)-2-methyl-[1,3]dioxolo[4,5-c]pyridine-4-carboxamide]
≥ 80%: inhibition of growth at 20 ppm [2]

CC1(C)CCC1NC(=O)c1nc(N(C#N)c2cc(F)cc(F)c2)cc2c1OCO2 (centres unmarked) [Compound P-7, 6-(N-cyano-3,5-difluoro-anilino)-N-(2,2-dimethylcyclobutyl)-[1,3]dioxolo[4,5-c]pyridine-4-carboxamide]
≥ 80%: inhibition of growth at 20 ppm [2] | inhibition of growth at 20 ppm [3] | inhibition of growth at 20 ppm [5]

CC(C)(C)CC(C)(C)NC(=O)c1nc(Nc2cc(F)cc(F)c2)cc2c1OCO2 [Compound P-17, 6-(3,5-difluoroanilino)-N-(1,1,3,3-tetramethylbutyl)-[1,3]dioxolo[4,5-c]pyridine-4-carboxamide]
≥ 80%: inhibition of growth at 20 ppm [3] | pest or weed control at 200 ppm [4] | inhibition of growth at 20 ppm [5]

CC1(NC(=O)c2nc(Nc3cc(F)cc(F)c3)cc3c2OCO3)CCOC1 (centres unmarked) [Compound P-23, 6-(3,5-difluoroanilino)-N-(3-methyltetrahydrofuran-3-yl)-[1,3]dioxolo[4,5-c]pyridine-4-carboxamide]
≥ 80%: pest or weed control at 200 ppm [1] | inhibition of growth at 20 ppm [2] | inhibition of growth at 20 ppm [3] | pest or weed control at 200 ppm [7] | inhibition of growth at 20 ppm [5]

CC(C)(C)CNC(=O)c1nc(Nc2cc(F)cc(F)c2)cc2c1OCO2 [Compound P-5, 6-(3,5-difluoroanilino)-N-(2,2-dimethylpropyl)-[1,3]dioxolo[4,5-c]pyridine-4-carboxamide]
≥ 80%: inhibition of growth at 20 ppm [2] | inhibition of growth at 20 ppm [3] | pest or weed control at 200 ppm [4] | pest or weed control at 200 ppm [7] | inhibition of growth at 20 ppm [5]

CC1(NC(=O)c2nc(Nc3cc(F)cc(F)c3)cc3c2OCO3)CSC1 [Compound P-19, 6-(3,5-difluoroanilino)-N-(3-methylthietan-3-yl)-[1,3]dioxolo[4,5-c]pyridine-4-carboxamide]
≥ 80%: pest or weed control at 200 ppm [1] | inhibition of growth at 20 ppm [2] | inhibition of growth at 20 ppm [3] | inhibition of growth at 20 ppm [6] | pest or weed control at 200 ppm [4] | pest or weed control at 200 ppm [7] | inhibition of growth at 20 ppm [5]

CCC(C)(C)NC(=O)c1nc(Nc2cc(F)cc(F)c2)cc2c1OCO2 [Compound P-18, 6-(3,5-difluoroanilino)-N-(1,1-dimethylpropyl)-[1,3]dioxolo[4,5-c]pyridine-4-carboxamide]
≥ 80%: inhibition of growth at 20 ppm [2] | inhibition of growth at 20 ppm [3] | inhibition of growth at 20 ppm [6] | pest or weed control at 200 ppm [8] | pest or weed control at 200 ppm [4] | pest or weed control at 200 ppm [7] | inhibition of growth at 20 ppm [5]

CC(C)(NC(=O)c1nc(Nc2cc(F)cc(F)c2)cc2c1OCO2)c1ccccc1 [Compound P-20, 6-(3,5-difluoroanilino)-N-(1-methyl-1-phenyl-ethyl)-[1,3]dioxolo[4,5-c]pyridine-4-carboxamide]
≥ 80%: inhibition of growth at 20 ppm [2] | inhibition of growth at 20 ppm [3] | inhibition of growth at 20 ppm [5]

CC(C)(C)CNC(=O)c1nc(Nc2cncc(F)c2)cc2c1OCO2 [Compound P-14, N-(2,2-dimethylpropyl)-6-[(5-fluoro-3-pyridyl)amino]-[1,3]dioxolo[4,5-c]pyridine-4-carboxamide]
≥ 80%: inhibition of growth at 20 ppm [2] | inhibition of growth at 20 ppm [3] | pest or weed control at 200 ppm [4] | inhibition of growth at 20 ppm [5]

CC1(C)CCC1NC(=O)c1nc(Nc2cc(F)nc(F)c2)cc2c1OCO2 (centres unmarked) [Compound P-10, 6-[(2,6-difluoro-4-pyridyl)amino]-N-(2,2-dimethylcyclobutyl)-[1,3]dioxolo[4,5-c]pyridine-4-carboxamide]
≥ 80%: inhibition of growth at 20 ppm [2] | inhibition of growth at 20 ppm [3] | inhibition of growth at 20 ppm [5]

CC1(C)CCC1NC(=O)c1nc(Nc2cc(F)cc(F)c2)cc2c1OCO2 (centres unmarked) [Compound P-11, 6-(3,5-difluoroanilino)-N-(2,2-dimethylcyclobutyl)-[1,3]dioxolo[4,5-c]pyridine-4-carboxamide]
≥ 80%: inhibition of growth at 20 ppm [2] | inhibition of growth at 20 ppm [3] | inhibition of growth at 20 ppm [6] | pest or weed control at 200 ppm [8] | inhibition of growth at 20 ppm [5]

CC1Oc2cc(Nc3cc(F)cc(F)c3)nc(C(=O)NCC(C)(C)C)c2O1 (centres unmarked) [Compound P-3, 6-(3,5-difluoroanilino)-N-(2,2-dimethylpropyl)-2-methyl-[1,3]dioxolo[4,5-c]pyridine-4-carboxamide]
≥ 80%: inhibition of growth at 20 ppm [2]

CC1(C)CCC1NC(=O)c1nc(Nc2ccccc2)cc2c1OCO2 (centres unmarked) [Compound P-9, 6-anilino-N-(2,2-dimethylcyclobutyl)-[1,3]dioxolo[4,5-c]pyridine-4-carboxamide]
≥ 80%: pest or weed control at 200 ppm [1] | inhibition of growth at 20 ppm [2] | inhibition of growth at 20 ppm [3] | inhibition of growth at 20 ppm [6] | pest or weed control at 200 ppm [7] | inhibition of growth at 20 ppm [5]

CC1(NC(=O)c2nc(Nc3cc(F)cc(F)c3)cc3c2OCO3)CCCCC1 [Compound P-26, 6-(3,5-difluoroanilino)-N-(1-methylcyclohexyl)-[1,3]dioxolo[4,5-c]pyridine-4-carboxamide]
≥ 80%: inhibition of growth at 20 ppm [2] | inhibition of growth at 20 ppm [3] | pest or weed control at 200 ppm [8] | pest or weed control at 200 ppm [4] | pest or weed control at 200 ppm [7] | inhibition of growth at 20 ppm [5]

CC1Oc2cc(Nc3cccc(F)c3)nc(C(=O)NCC(C)(C)C)c2O1 (centres unmarked) [Compound P-2, N-(2,2-dimethylpropyl)-6-(3-fluoroanilino)-2-methyl-[1,3]dioxolo[4,5-c]pyridine-4-carboxamide]
≥ 80%: inhibition of growth at 20 ppm [2] | inhibition of growth at 20 ppm [5]

CC1(C)CCC1NC(=O)c1nc(Nc2cc(F)cc(F)c2)cc2c1OC(F)(F)O2 (centres unmarked) [Compound P-6, 6-(3,5-difluoroanilino)-N-(2,2-dimethylcyclobutyl)-2,2-difluoro-[1,3]dioxolo[4,5-c]pyridine-4-carboxamide]
≥ 80%: inhibition of growth at 20 ppm [2] | inhibition of growth at 20 ppm [3]

CC(C)CCNC(=O)c1nc(Nc2cc(F)nc(F)c2)cc2c1OCO2 [Compound P-12, 6-[(2,6-difluoro-4-pyridyl)amino]-N-isopentyl-[1,3]dioxolo[4,5-c]pyridine-4-carboxamide]
≥ 80%: inhibition of growth at 20 ppm [3] | pest or weed control at 200 ppm [8] | inhibition of growth at 20 ppm [5]
